# Measurements from the supplement of paper PMC10307832.
# Assays:
# Experiment in all cases: relative viability (nuclei count vs DMSO), 5 days (fraction); higher = more cells survive
# Quizartinib + Luminespib = compound: CC(C)(C)c1cc(NC(=O)Nc2ccc(-c3cn4c(n3)sc3cc(OCCN5CCOCC5)ccc34)cc2)no1 [Quizartinib] + CCNC(=O)c1noc(-c2cc(C(C)C)c(O)cc2O)c1-c1ccc(CN2CCOCC2)cc1 [Luminespib] (partner 0.01 µM)
# Summary of the method: (§1)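 Lung cancer cell lines were pin-tool dosed in 1536-well plates on the day after seeding, with either a lone drug or a fixed anchor-drug dose plus five library-drug doses (not always all listed) in √10 steps. Nuclei were counted on 4× images after 5 days. Relative viability is the ratio of treated-well to vehicle-well nuclei counts, with each value a median of duplicate plates.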
# YM155 + AZD7762 = compound: COCC[n+]1c2c(n(Cc3cnccn3)c1C)C(=O)c1ccccc1C2=O [YM155] + NC(=O)Nc1cc(-c2cccc(F)c2)sc1C(=O)N[C@H]1CCCNC1 [AZD7762] (partner 0.2 µM)
# Summary of the method: as §1
# Quizartinib + Pictilisib = compound: CC(C)(C)c1cc(NC(=O)Nc2ccc(-c3cn4c(n3)sc3cc(OCCN5CCOCC5)ccc34)cc2)no1 [Quizartinib] + CS(=O)(=O)N1CCN(Cc2cc3nc(-c4cccc5[nH]ncc45)nc(N4CCOCC4)c3s2)CC1 [Pictilisib] (partner 1 µM)
# Summary of the method: as §1
# YM155 + OSI-027 = compound: COCC[n+]1c2c(n(Cc3cnccn3)c1C)C(=O)c1ccccc1C2=O [YM155] + COc1cccc2cc(-c3nc([C@H]4CC[C@H](C(=O)O)CC4)n4ncnc(N)c34)[nH]c12 [OSI-027] (partner 0.5 µM)
# Summary of the method: as §1
Cell Line,relative viability (Quizartinib + Luminespib; first compound 0.001 µM),relative viability (Quizartinib + Luminespib; first compound 0.003162 µM),relative viability (Quizartinib + Luminespib; first compound 0.01 µM),relative viability (Quizartinib + Luminespib; first compound 0.03162 µM),relative viability (Quizartinib + Luminespib; first compound 0.1 µM),relative viability (YM155 + AZD7762; first compound 0.006325 µM),relative viability (YM155 + AZD7762; first compound 0.02 µM),relative viability (YM155 + AZD7762; first compound 0.06325 µM),relative viability (Quizartinib + Pictilisib; first compound 0.001 µM),relative viability (Quizartinib + Pictilisib; first compound 0.003162 µM),relative viability (Quizartinib + Pictilisib; first compound 0.01 µM),relative viability (Quizartinib + Pictilisib; first compound 0.1 µM),relative viability (YM155 + OSI-027; first compound 0.002 µM),relative viability (YM155 + OSI-027; first compound 0.006325 µM),relative viability (YM155 + OSI-027; first compound 0.02 µM),relative viability (YM155 + OSI-027; first compound 0.06325 µM),relative viability (YM155 + AZD7762; first compound 0.002 µM),relative viability (Quizartinib + Pictilisib; first compound 0.03162 µM)
NCI-H358,0.224,0.359,0.309,0.475,0.228,0.523,0.437,0.281,0.297,0.332,0.305,0.315,0.684,0.981,0.887,0.552,,
HOP-62,0.914,0.843,1.04,0.933,0.9,0.427,0.902,0.43,0.377,0.7,0.692,0.835,0.807,0.847,0.899,0.864,0.484,0.831
HCC-44,,0.99,1.06,0.35,0.996,1.06,1.07,0.976,0.669,0.516,0.56,0.555,0.45,0.608,0.58,0.304,1.04,0.626
NCI-H1993,0.862,1.03,0.965,0.844,0.692,0.775,0.475,0.537,0.917,0.776,0.812,0.808,0.563,0.569,0.583,0.522,0.687,0.807
A-427,1.03,0.777,0.988,0.506,1.01,0.793,0.752,0.312,0.702,0.709,0.708,0.668,0.478,0.562,0.597,0.458,0.741,0.68
NCI-H322M,0.81,0.92,0.944,0.448,0.895,0.579,0.593,0.572,0.523,0.545,0.509,0.537,0.58,0.525,0.533,0.581,0.53,0.533
NCI-H838,0.203,0.207,0.329,0.281,0.234,0.904,0.932,0.726,0.389,0.479,0.356,0.377,0.361,0.406,0.421,0.438,0.936,0.39
NCI-H23,0.209,0.245,0.219,,0.185,0.292,0.308,0.239,,0.464,0.49,0.441,0.498,0.66,0.599,0.522,,0.568
LOU-NH91,0.317,0.355,0.292,0.362,0.343,0.756,0.769,0.8,0.431,0.559,0.521,0.545,0.689,0.751,0.757,0.762,0.766,0.465
